From patent US20130109682A1, “CYCLIC ETHER COMPOUNDS USEFUL AS KINASE INHIBITORS” (NOVARTIS AG, priority 2010, published 2013)
Read-outs that look alike come from different tables or passages of the source.

Key:
PIM2 [1] = biological target: T1, PIM2 (Homo sapiens, UniProt Q9P1W9); test: Pim 2 AlphaScreen assay (high ATP); assay type: biochemical; conditions: read-out: Pim2 IC50
Summary of the method: (§1)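 IC50 values rest on detection of phosphorylated Bad peptide: after a ~2 h kinase reaction, an EDTA stop buffer containing anti-phospho Ser/Thr antibody, Protein A and streptavidin AlphaScreen beads was added and read after overnight dark incubation. ATP was high (11-125× Km), with 2.5% DMSO in pH 7.5 Hepes buffer containing MgCl2, BSA, Tween-20 and DTT.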

PIM3 [2] = biological target: T2, PIM3 (Homo sapiens, UniProt Q86V86); test: Pim 3 AlphaScreen assay (high ATP); assay type: biochemical; conditions: read-out: Pim3 IC50
Summary of the method: as §1

PIM1 [3] = biological target: T3, PIM1 (Homo sapiens, UniProt P11309); test: Pim 1 AlphaScreen assay (high ATP); assay type: biochemical; conditions: read-out: Pim1 IC50
T3 sequence (P11309 whole entry): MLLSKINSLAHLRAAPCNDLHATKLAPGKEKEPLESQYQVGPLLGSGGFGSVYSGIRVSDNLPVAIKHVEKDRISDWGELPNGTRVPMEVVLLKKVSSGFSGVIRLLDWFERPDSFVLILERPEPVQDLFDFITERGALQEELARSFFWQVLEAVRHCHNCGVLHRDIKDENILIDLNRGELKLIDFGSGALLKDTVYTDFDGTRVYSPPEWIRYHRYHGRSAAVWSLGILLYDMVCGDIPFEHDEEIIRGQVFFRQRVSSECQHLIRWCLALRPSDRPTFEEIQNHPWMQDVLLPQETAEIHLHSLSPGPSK
Summary of the method: as §1

[4] = system: KMS11 (human myeloma cell line); test: Cell proliferation assay (CellTiter-Glo), KMS11; assay type: cell-based; conditions: Homo sapiens, KMS-11
Summary of the method: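 EC50 derived from CellTiter-Glo luminescence after 3-day exposure at 37° C. Compound was diluted to 2× in medium and added to an equal volume of cells. KMS11 myeloma cells were plated on assay day at 2000/well in IMDM with 10% FBS and sodium pyruvate.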

GSK3β = GSK3β (Homo sapiens, UniProt P49841); test: GSK3β ATP depletion assay; assay type: biochemical; conditions: read-out: GSK3b IC50
Sequence of GSK3β (P49841 whole entry, species assumed): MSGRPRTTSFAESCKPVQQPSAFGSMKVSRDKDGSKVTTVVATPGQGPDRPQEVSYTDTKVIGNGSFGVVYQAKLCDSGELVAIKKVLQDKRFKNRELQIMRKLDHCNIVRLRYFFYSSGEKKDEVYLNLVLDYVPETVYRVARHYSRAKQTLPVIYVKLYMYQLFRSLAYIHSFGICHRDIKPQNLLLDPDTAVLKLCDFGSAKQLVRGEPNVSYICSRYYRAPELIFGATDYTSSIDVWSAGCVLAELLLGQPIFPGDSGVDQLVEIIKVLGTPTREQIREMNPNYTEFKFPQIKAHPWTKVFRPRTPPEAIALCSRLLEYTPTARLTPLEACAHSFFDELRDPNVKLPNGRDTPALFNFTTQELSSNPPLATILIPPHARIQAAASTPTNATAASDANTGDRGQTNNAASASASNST
Summary of the method: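 Kinase activity is read as ATP consumption: luciferase luminescence reports the ATP remaining once roughly half of the 2 μM ATP is used. Reaction mix: 5 nM GSK3β, 10 μM b-CREB peptide, 50 mM Tris pH 7.5, 15 mM MgCl2, 1 mM DTT, 0.1% BSA, 2.5% DMSO. Enzyme and peptide are preincubated 15 min before ATP is added.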

hERG = biological target: T4, hERG (Homo sapiens, UniProt Q12809); test: hERG binding assay ([3H] dofetilide displacement); conditions: dofetilide displacement; read-out: HERGdof IC50
T4 construct: host or cells: crude membrane suspension
T4 sequence (Q12809 whole entry): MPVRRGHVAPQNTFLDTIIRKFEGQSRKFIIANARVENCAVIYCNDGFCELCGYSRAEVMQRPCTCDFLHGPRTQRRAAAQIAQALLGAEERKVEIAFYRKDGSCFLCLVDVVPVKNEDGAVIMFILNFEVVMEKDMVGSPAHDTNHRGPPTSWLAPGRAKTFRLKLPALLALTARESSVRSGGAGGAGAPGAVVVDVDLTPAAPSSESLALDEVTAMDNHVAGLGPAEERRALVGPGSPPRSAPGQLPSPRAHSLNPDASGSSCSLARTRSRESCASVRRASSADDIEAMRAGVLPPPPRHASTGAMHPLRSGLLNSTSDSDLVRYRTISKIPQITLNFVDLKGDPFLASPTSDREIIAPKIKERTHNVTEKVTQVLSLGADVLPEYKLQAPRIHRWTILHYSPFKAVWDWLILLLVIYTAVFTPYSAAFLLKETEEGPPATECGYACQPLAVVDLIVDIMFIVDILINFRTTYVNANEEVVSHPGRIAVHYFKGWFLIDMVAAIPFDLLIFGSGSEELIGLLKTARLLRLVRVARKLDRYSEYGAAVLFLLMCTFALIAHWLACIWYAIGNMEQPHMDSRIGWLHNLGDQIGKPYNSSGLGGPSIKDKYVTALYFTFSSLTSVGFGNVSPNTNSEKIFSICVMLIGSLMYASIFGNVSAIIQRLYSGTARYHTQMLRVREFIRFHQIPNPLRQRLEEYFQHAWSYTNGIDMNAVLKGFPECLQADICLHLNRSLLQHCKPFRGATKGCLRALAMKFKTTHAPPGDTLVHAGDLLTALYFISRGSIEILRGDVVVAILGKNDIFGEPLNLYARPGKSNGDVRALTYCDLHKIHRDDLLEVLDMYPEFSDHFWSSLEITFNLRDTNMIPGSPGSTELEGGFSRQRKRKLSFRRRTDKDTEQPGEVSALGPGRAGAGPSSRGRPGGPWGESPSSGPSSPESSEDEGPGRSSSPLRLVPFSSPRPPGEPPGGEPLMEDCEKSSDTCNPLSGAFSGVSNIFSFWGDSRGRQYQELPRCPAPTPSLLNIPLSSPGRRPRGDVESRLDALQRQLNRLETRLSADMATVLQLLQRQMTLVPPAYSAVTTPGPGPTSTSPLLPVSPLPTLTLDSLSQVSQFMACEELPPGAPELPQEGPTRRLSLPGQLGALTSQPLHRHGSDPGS
Procedure: Compounds of the invention were pipetted into each well of pre-wet 96-well Millipore GF/C filter plates (#MSFCN6B50): 119 μl assay buffer, 1 μl test compound in 100% DMSO (or 100% DMSO only for total binding), 40 μl [3H] dofetilide (12.5 nM, final concentration 2.5 nM; Novartis radioisotope laboratory, East Hanover, N.J., USA, specific activity 15-45 Ci/mmol); 40 μl crude membrane suspension (ca. 15 μg protein). The final concentration of DMSO during the incubation was 0.5%. Incubations were performed at room temperature for 90 min. Non-specific binding (NSB) was defined as the binding remaining in the presence of 25 μM terfenadine (Sigma T9652). The incubations were terminated by rapid filtration on a Millipore filtration manifold, followed by three washes of 200 μA ice-cold assay buffer. The plates were left to dry overnight before adding 40 μA scintillant (MicroScint-20). The plates were then sealed (Sealing Tape SI, Nunc 236366) and read in a Wallac MicroBeta Trilux beta-counter for 1.5 min per well. Compounds were tested as 9-concentration response curves in duplicate, ranging from 30 μM to 3 nM in 1:3 dilution steps. Dilution curves were prepared in 100% DMSO. The reference compound (terfenadine) was tested as an eight-concentration response curve, ranging from 10 μM to 0.6 nM in 1:4 dilution steps.

PIM3 [5] = biological target: T2, PIM3; test: KinaseGlo Pim3 ATP depletion assay; assay type: biochemical
Summary of the method: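 Residual ATP was detected by luciferase luminescence once about half had been consumed. The reaction contained 5 nM enzyme, 100 μM BAD peptide (RSRHSSYPAGT) and 40 μM ATP in 50 mM HEPES pH 7.5, 5 mM MgCl2, 1 mM DTT and 0.05% BSA with 2.5% DMSO. Compound and enzyme/peptide were premixed 15 min before ATP.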

PIM2 [6] = biological target: T1, PIM2; test: KinaseGlo Pim2 ATP depletion assay; assay type: biochemical
Summary of the method: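 Compound sat 15 min with enzyme and BAD peptide before ATP was added; final levels 5 nM PIM2, 10 μM peptide, 4 μM ATP, 2.5% DMSO, pH 7.5 HEPES buffer with MgCl2, DTT, BSA. Stopped near 50% ATP consumption; remaining ATP measured by luciferase luminescence.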

PIM1 [7] = biological target: T3, PIM1; test: KinaseGlo Pim1 ATP depletion assay; assay type: biochemical
Summary of the method: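 IC50 is derived from residual ATP measured by KinaseGlo Plus luminescence once about half the ATP was consumed. Final conditions were 20 μM ATP, 40 μM BAD peptide and 2.5 nM kinase in HEPES pH 7.5 buffer with MgCl2, DTT and BSA, plus 2.5% DMSO. Compound and enzyme were premixed 15 min before ATP addition.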

[8] = KMS11 cells, cell proliferation, read-out: KMS11-Luc EC50

T1 sequence (Q9P1W9 whole entry): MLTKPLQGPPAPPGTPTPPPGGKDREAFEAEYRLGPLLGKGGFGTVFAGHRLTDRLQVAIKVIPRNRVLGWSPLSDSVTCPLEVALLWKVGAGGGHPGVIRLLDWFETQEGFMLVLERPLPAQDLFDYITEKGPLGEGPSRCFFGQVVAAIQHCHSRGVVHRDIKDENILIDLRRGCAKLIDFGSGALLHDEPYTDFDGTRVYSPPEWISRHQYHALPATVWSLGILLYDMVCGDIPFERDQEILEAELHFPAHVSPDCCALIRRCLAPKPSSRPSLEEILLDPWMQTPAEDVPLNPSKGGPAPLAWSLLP

IC50 (PIM2 [1]) [nM]	IC50 (PIM3 [2]) [nM]	IC50 (PIM1 [3]) [nM]	EC50 [4, 8] [nM]	IC50 (GSK3β; ATP depletion assay) [nM]	IC50 (PIM3 [5]) [nM]	IC50 (PIM2 [6]) [nM]	IC50 (PIM1 [7]) [nM]	IC50 (GSK3β) [nM]	EC50 ([4]; KMS11-Luc cells) [nM]	Structure (SMILES)	IC50 (hERG) [nM]
504	181	4	5470	> 25000	–	–	–	–	–	COc1cc(F)c(-c2nc(C(=O)Nc3cnccc3[C@@H]3C[C@H](N)[C@@H](O)[C@H](C4CC4)O3)ccc2F)c(F)c1 [Example 325, N-(4-((2S,4S,5R,6S)-4-amino-6-cyclopropyl-5-hydroxytetrahydro-2H-pyran-2-yl)pyridin-3-yl)-6-(2,6-difluoro-4-methoxyphenyl)-5-fluoropicolinamide]	–
2.3	1.7	0.05	80	1160	–	–	–	–	–	COCCOc1cc(F)c(-c2nc(C(=O)Nc3cnccc3C3C[C@@H](N)[C@H](O)[C@@H](C(C)C)O3)ccc2F)c(F)c1 (stereo in doubt) [Example 318, N-(4-((2S,4R,5S,6R)-4-amino-5-hydroxy-6-isopropyltetrahydro-2H-pyran-2-yl)pyridin-3-yl)-6-(2,6-difluoro-4-(2-methoxyethoxy)phenyl)-5-fluoropicolinamide]	–
3.5	1.8	0.07	30	1570	–	–	–	–	–	CC(C)[C@H]1OC(c2ccncc2NC(=O)c2ccc(F)c(-c3c(F)cc(OCCO)cc3F)n2)C[C@@H](N)[C@@H]1O (stereo in doubt) [Example 319, N-(4-((2S,4R,5S,6R)-4-amino-5-hydroxy-6-isopropyltetrahydro-2H-pyran-2-yl)pyridin-3-yl)-6-(2,6-difluoro-4-(2-hydroxyethoxy)phenyl)-5-fluoropicolinamide]	–
396	184	3.4	4320	> 25000	–	–	–	–	–	Cc1cc(F)c(-c2nc(C(=O)Nc3cnccc3[C@@H]3C[C@H](N)[C@@H](O)[C@H](C4CC4)O3)ccc2F)c(F)c1 [Example 324, N-(4-((2S,4S,5R,6S)-4-amino-6-cyclopropyl-5-hydroxytetrahydro-2H-pyran-2-yl)pyridin-3-yl)-6-(2,6-difluoro-4-methylphenyl)-5-fluoropicolinamide]	–
6.7	9	0.3	230	5240	–	–	–	–	–	Cc1cc(F)c(-c2nc(C(=O)Nc3cnccc3[C@H]3C[C@@H](N)[C@H](O)[C@@H](C4CC4)O3)ccc2F)c(F)c1 [Example 322, N-(4-((2R,4R,5S,6R)-4-amino-6-cyclopropyl-5-hydroxytetrahydro-2H-pyran-2-yl)pyridin-3-yl)-6-(2,6-difluoro-4-methylphenyl)-5-fluoropicolinamide]	–
13.4	9.7	0.3	190	4200	–	–	–	–	–	COc1cc(F)c(-c2nc(C(=O)Nc3cnccc3[C@H]3C[C@@H](N)[C@H](O)[C@@H](C4CC4)O3)ccc2F)c(F)c1 [Example 323, N-(4-((2R,4R,5S,6R)-4-amino-6-cyclopropyl-5-hydroxytetrahydro-2H-pyran-2-yl)pyridin-3-yl)-6-(2,6-difluoro-4-methoxyphenyl)-5-fluoropicolinamide]	–
6.6	9.6	1	80	> 25000	–	–	–	–	–	CC(C)[C@H]1OC(c2ccncc2NC(=O)c2ccc(F)c(-c3c(F)ccc(C(=O)N(C)C)c3F)n2)C[C@@H](N)[C@@H]1O (stereo in doubt) [Example 317, N-(4-((2S,4R,5S,6R)-4-amino-5-hydroxy-6-isopropyltetrahydro-2H-pyran-2-yl)pyridin-3-yl)-6-(3-(dimethylcarbamoyl)-2,6-difluorophenyl)-5-fluoropicolinamide]	–

Further lines, the molecule ahead of its results:

Structure (SMILES)	IC50 (PIM2 [1]) [nM]	IC50 (PIM3 [2]) [nM]	IC50 (PIM1 [3]) [nM]	EC50 [4, 8] [nM]	IC50 (GSK3β; ATP depletion assay) [nM]	IC50 (PIM3 [5]) [nM]	IC50 (PIM2 [6]) [nM]	IC50 (PIM1 [7]) [nM]	IC50 (GSK3β) [nM]	EC50 ([4]; KMS11-Luc cells) [nM]	IC50 (hERG) [nM]
C[C@H]1O[C@@H](c2ccncc2NC(=O)c2ccc(F)c(-c3ccc(S(C)(=O)=O)cc3)n2)C[C@@H](N)[C@]1(C)O [Example 321, N-(4-((2R,4R,5S,6R)-4-amino-5-hydroxy-5,6-dimethyltetrahydro-2H-pyran-2-yl)pyridin-3-yl)-5-fluoro-6-(4-(methylsulfonyl)phenyl)picolinamide]	1370	783	4.7	> 10000	1880	–	–	–	–	–	–
CC[C@]1(O)[C@H](O)C[C@H](c2ccncc2NC(=O)c2nc(-c3c(F)cccc3F)c(F)cc2N)O[C@@H]1C [Example 27, 3-amino-6-(2,6-difluorophenyl)-N-(4-((2R,4R,5S,6R)-5-ethyl-4,5-dihydroxy-6-methyltetrahydro-2H-pyran-2-yl)pyridin-3-yl)-5-fluoropicolinamide]	–	–	–	–	–	1	1	1	250	–	> 30000
CSc1ccc(F)c(-c2nc(C(=O)Nc3cnccc3[C@H]3C[C@@H](N)[C@](C)(O)[C@@H](C)O3)ccc2F)c1F [Example 327, N-(4-((2R,4R,5S,6R)-4-amino-5-hydroxy-5,6-dimethyltetrahydro-2H-pyran-2-yl)pyridin-3-yl)-6-(2,6-difluoro-3-(methylthio)phenyl)-5-fluoropicolinamide]	18.8	2.6	0.07	310	640	–	–	–	–	–	–
C[C@H]1O[C@@H](c2ccncc2NC(=O)c2ccc(F)c(-c3ccccc3)n2)C[C@@H](N)[C@]1(C)O [Example 320, N-(4-((2R,4R,5S,6R)-4-amino-5-hydroxy-5,6-dimethyltetrahydro-2H-pyran-2-yl)pyridin-3-yl)-5-fluoro-6-phenylpicolinamide]	245	42	1	4670	3250	–	–	–	–	–	–
O=C(Nc1cnccc1[C@@H]1C[C@H](O)CC2(CC2)O1)c1ccc(F)c(-c2c(F)cccc2F)n1 [Example 60, 6-(2,6-difluorophenyl)-5-fluoro-N-(4-((5S,7S)-7-hydroxy-4-oxaspiro[2.5]octan-5-yl)pyridin-3-yl)picolinamide]	–	–	–	–	–	–	28	–	92	> 10000	> 30000
CC1(C)C[C@H](N)C[C@@H](c2ccncc2NC(=O)c2ccc(F)c(-c3c(F)cc(OCCO)cc3F)n2)O1 [Example 314, N-(4-((2S,4R)-4-amino-6,6-dimethyltetrahydro-2H-pyran-2-yl)pyridin-3-yl)-6-(2,6-difluoro-4-(2-hydroxyethoxy)phenyl)-5-fluoropicolinamide]	7.5	1.1	0.05	60	109	–	–	–	–	–	–
C[C@@H]1O[C@H](c2ccncc2NC(=O)c2ccc(F)c(-c3c(F)cccc3F)n2)C[C@H](N)[C@@]1(C)O [Example 220, N-(4-((2S,4S,5R,6S)-4-amino-5-hydroxy-5,6-dimethyltetrahydro-2H-pyran-2-yl)pyridin-3-yl)-6-(2,6-difluorophenyl)-5-fluoropicolinamide]	228	29.9	2.09	6210	9140	–	–	–	–	–	–
